The record followed here is a melting point compilation (Tetko et al.; mined from patent text by program, amines drawn as free bases though some values may be those of a salt).

Some results are limits rather than exact numbers.

`CCOCc1nc2c(N)nc(C)c(C)c2n1C1(OC)CCCCC1` returned a melting point of 172 to 173 °C.
Under `Cc1cccc(Cl)c1CO` stands 83 to 86 °C.
Compound `CCc1cccc(CC(=O)O)c1OCCCn1cc(C(=O)NCc2ccc(C(F)(F)F)cc2)c(OC(C)C)n1` displayed a melting point of 108 °C.
In the case of `COc1ccc(C(=O)Nc2c(Cl)cc(C(=O)O)cc2Cl)c2cc(C(C)C)oc12`, the melting point stood at 279 °C.
Regarding `CC(=NC#N)NC1=CC(C)(C)Oc2ccc(C#N)cc21`, the melting point fell in the range of 205 to 206 °C.
With `C=CC(=O)Nc1ccc2c(Nc3cccc(Br)c3)ncnc2c1` the figure was greater than 265 °C; with `Cc1ccccc1CC(=NC#N)NC(NC(=O)Cc1ccc2c(c1)OCCO2)C(C)(C)C` (stereo not given), 180 to 181 °C.
With `CCCCCCCCOc1ccc(C(=O)Oc2ccc(-c3ccc(OC(=O)[C@H]4CCCO4)cc3)cc2)cc1` the figure was 73 °C; with `OC1CSC(Oc2ccc(-c3cncnc3)cc2)C(O)C1O` (stereo not given), 196 to 200 °C; with `Cn1c(C=[N+](C)[O-])cnc1[N+](=O)[O-]`, 208 to 209 °C.
Under `O=C(Cc1ccc(I)cc1)NC[C@H]1CCCN1CCF` stands 96 °C; under `CC(C)(Br)c1ccc2occ(C#N)c(=O)c2c1`, 115 to 117 °C; under `CCOC(=O)c1c2ccc(CC(=O)N(OC)C3COC(C)(C)O3)ccc-2c(C(=O)OCC)c1N` (stereo not given), 135 to 137 °C.
As to `O=C(O)c1cc(-c2ccccc2Cl)c[nH]c1=O`, the melting point is 299 to 303 °C.
Under `NC(=O)c1cc(OCCNCC(O)c2ccccn2)ccc1O` (stereo not given) stands 169 to 170 °C; under `Nc1cccc(C2(O)CCOCC2)c1`, 154 to 155 °C; under `Cc1cc2c(-c3ccccc3)c(CN)n(C)c(=O)c2cc1C`, 163 to 165 °C.
Under `Cc1[nH]c(=O)ccc1-c1ccc(O)c(N)c1` stands 279 to 283 °C; under `CN(Cc1cccc2c1C(=O)N(C1CCC(=O)NC1=O)C2=O)C(=O)C1CC1` (stereo not given), 243 to 245 °C.
Under `NC(CF)(Cc1cc(O)ccc1O)C(=O)O` (stereo not given) stands 212 °C.
Compound `CCCCCCCCCCCCC#CC(F)(CCCCC(=O)O)CCCCC(=O)O` returned a melting point of 98 to 100 °C.
The compound `COc1cc(OC)nc(NC(=O)NS(=O)(=O)c2cccc3sc(C)nc23)n1` yielded a melting point of 187 to 194 °C.
With `C=CCC1(CC=C)c2cc(Br)ccc2-c2ccc(Br)cc21`, the melting point lay within 149 to 150 °C.
Under `COC(=O)c1nc(-c2ccc(Cl)c(OC)c2F)nc(N)c1C(F)CBr` (stereo not given) stands 144 to 146 °C.
Take `CCOCc1nc2c(N)nc3ccccc3c2n1CCCCS(=O)(=O)N(C)C`: the melting point was 173 to 174 °C.
Under `O=S(=O)(c1cc(Br)[nH]c1-c1ccc(Cl)cc1)C(F)(F)F` stands 73 to 76 °C; under `Cc1cc([N+](=O)[O-])ccc1NC(=O)C1=C(O)N(C)S(=O)(=O)c2cscc21`, 186 to 188 °C; under `c1csc(-c2nc3ccccc3nc2OC2CCC2)c1`, 103 °C.
With `CC(=O)OCc1c(CNC(=O)c2ccc(C(=O)O)cc2)ccc2c1C(C)(C)CCC2(C)C` the figure was 95 to 100 °C; with `CC(C)Oc1cc(NNC(=N)C(F)(F)F)c(Cl)cc1Cl`, 80.5 to 81 °C.
`CCOC(=O)c1c(C)nc(-c2ccccc2)nc1-c1cc([N+](=O)[O-])ccc1S(C)(=O)=O` displayed a melting point of 150 to 151 °C.
Under `O=S(=O)(c1ccccc1)c1cc(Cl)c2oc3c(c2c1)CC(O)CC3` (stereo not given) stands 236 to 240 °C; under `CCCCCCCCCCCCCCCCOc1ccc(OCC(=O)NCc2ccccn2)cc1`, 68 to 69 °C; under `CCC1(CC(=O)O)OCCc2c1[nH]c1c(OCC(F)(F)F)cccc21` (stereo not given), 126 to 129 °C.
Under `CC(=O)c1cc(C(F)(F)F)nn1-c1ccc(NC(=O)c2cccnc2F)cc1` stands 188 to 189 °C; under `O=C(O)C(Cc1ccc(OCCn2c(=O)sc3cc(C(=NO)C4CC4)ccc32)cc1)OCC(F)(F)F` (stereo not given), 88 to 90 °C; under `CN(CCCNc1ncc(CCc2ccccc2)c(=O)[nH]1)c1ccccn1`, 134 to 136 °C.
Under `CCNC(=O)Nc1nc2cc(-c3ccc(OC)nc3)ccn2n1` stands 230 to 233 °C; under `CN1CC(C(=O)c2ccc(Cc3ccc(F)cc3)o2)=C(O)C1=O`, 141 to 143 °C.
On to `O=C(Nc1nc(=O)n(S(=O)(=O)c2ccccc2)cc1F)Oc1ccccc1`, for which the melting point is 182 to 185 °C.
Under `CC(C)(C)c1cc(CCc2ccccc2NC(=O)N2CCC(N3CCCCC3)CC2)cc(C(C)(C)C)c1O` stands 64 to 67 °C.
`CCOC(=O)c1c(NCCC(=O)c2ccccc2)c2c(Cl)cc(Cl)cc2n1C(=O)OC(C)(C)C` came in with a melting point of 130 to 131 °C.
With `CCCCCCCCCCCCCCCCC1CC(Cn2cncn2)(c2ccc(Cl)cc2)N(C)O1` (stereo not given) the figure was 100 to 102 °C.
Under `O=C(Nc1cccc(Cl)c1)c1c(C(F)(F)F)nc2c(C(F)(F)F)cccc2c1O` stands 152 °C; under `CC1CCc2cc(C(O)C(C)N3CCC(n4c(=O)[nH]c5ccccc54)CC3)ccc2S1` (stereo not given), 237 to 239 °C.
Under `COCC(=O)OC(n1cc(C#N)c(-c2cccc(Cl)c2Cl)c1)C(Cl)(Cl)Cl` (stereo not given) stands 88 to 90 °C; under `COC(=O)CCc1ccc(-n2ncn(-c3ccc(C#N)cc3)c2=O)cc1`, 213 to 215 °C.
Consider `C=C(Cn1ccnc1)c1cc(F)ccc1OCc1ccc(Cl)cc1Cl`, for which the melting point is 79 to 82 °C.
Under `CCOC(=O)c1cccc2c1N(CCN1CC=C(c3c[nH]c4cc(F)ccc34)CC1)S(=O)(=O)N(C(C)C)C2` stands 95 to 97 °C; under `CNC(=O)[C@@H]1CCCN1C(=O)[C@H](C)NC(=O)OCc1ccccc1`, 126 to 129 °C; under `O=Cc1cccnc1Nc1ccccc1F`, 94 °C.
With `N#C/C=C/c1coc2ccccc2c1=O` the figure was 192 to 194 °C; with `CCCCNc1c(C(=O)OCC)c(C)nc2sc(C)nc12`, 53 to 54 °C; with `O=S1(=O)NCCc2ccc(Oc3ccccc3)cc21`, 129 to 132 °C.
Regarding `CC(C)(C)N1CCN(c2cc3c(cc2F)c(=O)c(C(=O)O)cn3C2CC2)CC1`, the melting point was in the range of 257 to 260 °C.
For the compound `O=C(CCl)OCCCCOC(=O)CCl`, the melting point is 74 to 76.5 °C.
Under `CNC1=NN(c2ccc(Cl)cc2)C(C)C1` (stereo not given) stands 102 to 103 °C; under `O=C1CCC2(CCOC2=O)C(=O)C1` (stereo not given), 145 to 148 °C.
With `COc1ccc(CONC(=O)Cn2nnnc2S)cc1` the figure was 167 to 168 °C; with `COC(=O)c1nc2cccc(C)c2c(O)c1C(=O)OC`, 167 to 168 °C; with `Oc1cnccc1CCCOc1cccnc1Sc1cccc(Br)c1`, 169 to 171 °C.
`O=[N+]([O-])C=C1NCCN1Cc1ccc(F)nc1` showed a melting point of 139 to 142 °C.
With `Nc1ccc(C23CC2C(=O)N(CC2CCCCC2)C3=O)cc1` (stereo not given) the figure was 125 to 126 °C; with `COc1ccc(C=CC(=O)O)cc1C=O`, 223 to 225 °C; with `Cc1c(S(C)(=O)=O)cc([N+](=O)[O-])c(Cl)c1[N+](=O)[O-]`, 174 to 175 °C.
Under `CC1(N)CN(C(c2ccccc2)c2ccccc2)C1` stands 84 to 86 °C; under `COc1ccc2[nH]c(SCc3ncc(C)c(OC)c3C)nc2c1`, 120 to 121 °C.
With `O=C(c1ccncc1)[N+]1([O-])CCC(=C2c3ccccc3CCn3ccnc32)CC1` (stereo not given) the figure was 155 to 159 °C; with `CNC(=O)C(C)Oc1ccc(Oc2ccc(Cl)cc2)cc1` (stereo not given), 117 to 118 °C.
Turning to `CCOC(=O)Nc1cccc(C(=O)Nc2ccc3ccc(OC)nc3n2)c1`, the melting point stood at 120 °C.
Under `CCOC(=O)c1c[nH]c2nc(N3CCN(C)CC3)ncc2c1=O` stands 266 to 268 °C.
With `CCCCN1CCCC1=NC(=O)Nc1c(C)cccc1C` the figure was 93 to 95 °C; with `CCOC(=O)C(=O)Nc1cc(C(F)(F)F)c(S(=O)(=O)NC(=O)C(=O)OCC)cc1[N+](=O)[O-]`, 175 to 180 °C; with `COc1c(N)cc(C(=O)O)cc1S(N)(=O)=O`, 210 °C.
As for `CCN(CC)CCOc1ccc2c(c1)cc(OC)c1cc(OCCN(CC)CC)ccc12`, the melting point lay within 63 to 65 °C.
Under `CCCC1=C(C#N)C(c2cccc([N+](=O)[O-])c2Cl)c2c[nH]nc2N1` (stereo not given) stands 234 to 235 °C; under `COc1c(CO)cccc1Oc1ccccc1C`, 63 to 65 °C.
Under `CC(=O)c1cccc(Nc2nnc(-c3cccc(Oc4cccc(C(F)(F)F)c4)c3)s2)c1` stands 130 to 133 °C; under `COc1cccc(CC(=O)N2CCN(c3cccc(C(F)(F)F)c3)CC2)c1`, 99 to 101 °C; under `CSc1cc(C)nc(SC)c1NC(=O)CCCCSc1nc2cccc(C(F)(F)F)c2o1`, 179 to 180 °C.
In the case of `CSc1nn2c(N)cc(CN3CCN(C)CC3)nc2c1S(=O)(=O)c1ccccc1`, the melting point is 203 to 205 °C.
`Cc1ccc2c(c1)N(CC(=O)c1ccccc1C)C(=O)C(NC(=O)Nc1cccc(C(=O)O)c1)CN2C(=O)CC(C)C` (stereo not given) came in with a melting point of 202 to 205 °C.
With `CC(C)CCNS(=O)(=O)c1cc(C(=O)NC2CCc3ccccc32)ccc1Oc1ccccc1` (stereo not given) the figure was 73 °C; with `CCCc1ccc(OCCC(C)C)cc1O`, 40 to 40.5 °C; with `COC(=O)CCc1cc(C(=O)c2cccc(C(=O)OC)n2)ccc1OC`, 97 to 98 °C.
Compound `CCOC(C)O[C@H]1C(=O)N(C(=O)Nc2ccccc2)[C@H]1c1ccccc1` (stereo not given in full) showed a melting point of 152 to 155 °C.
With `COC(=O)c1cc(-c2ccc(Cl)cc2)n(-c2ccc(Cl)cc2Cl)n1` the figure was 167 °C.
`CCNC(=O)n1nc(Oc2ccc([N+](=O)[O-])cc2)cc1C` showed a melting point of 105 to 107 °C.
Under `CCOC(=O)c1ccccc1CN1C(=O)C(CCO)Oc2ccccc21` (stereo not given) stands 114 to 116 °C.
In turn, `O=C1Cc2cccc(S(=O)(=O)c3ccccc3)c2N1` had a melting point of 217 to 220 °C.
